Data published in article PMC11062899, “De novo development of small cyclic peptides that are orally bioavailable” (Nature Chemical Biology, 2023).
Values joined by “and” are separate entries in the source; they are usually repeats but may differ in a detail not shown here. Equal entries are not always repeated. Where two headings read alike, the source gives them in different places.

Columns and labels:
human α-thrombin = human α-thrombin (Homo sapiens, UniProt P00734); assay: Protease inhibition, Ki for human α-thrombin (fluorogenic substrate Z-Gly-Gly-Arg-AMC); type: biochemical; conditions: for Human alpha thrombin inhibition, slope normalized to DMSO: replicates R1-R3
Procedure: (§1) The inhibition constants (Ki) of cyclic peptides were calculated by measuring thrombin inhibition in the presence of different concentrations of the cyclic peptides. […] Human α-thrombin (Molecular Innovations) and rat α-thrombin (Molecular Innovations) were used at final concentrations of 2 nM and 3 nM, respectively, and fluorogenic substrate (Z-Gly-Gly-Arg-AMC, Bachem) was used at a concentration of 50 μM. Enzymatic activity was determined by measuring fluorescent gain on a Tecan Infinite M200 Pro microplate reader (excitation: 360 nm, emission: 465 nm) or a PHERAstar FSX microplate reader (excitation: 380 nm, emission: 440 nm) for 30 min at 25 °C with a fluorescent readout every 3 min. The two instruments were controlled with Tecan Infinite M200 Pro instrument software (iControl, version 1.12) and PHERAstar FSX software (version 5.70, edition 8), respectively. Protease inhibition was calculated by comparing the enzymatic activity to a control without cyclic peptide.
(§2) Half maximal inhibitory concentration (IC50) values were determined using a four-parameter logistic regression model in GraphPad Prism 9 to fit sigmoidal curves to the acquired data points according to equation (2) below.2 y=b+a−b/1+10^(logIC50−x)p where a and b represent the measured inhibition maximum and minimum, respectively; x is the logarithm of peptide concentration; y is the thrombin activity compared to a control without the cyclic peptide; and p is the Hill coefficient.
(§3) Ki values were calculated using the IC50 and the Cheng–Prusoff equation (equation (3)).3 Ki=IC50/1+S0/Km where Km is the Michaelis–Menten constant of the enzyme for the substrate used in the assay, and [S]0 is the initial substrate concentration.

[1] = Passive artificial membrane permeability (PAMPA);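 as to Permeability% Average: top well sample relative to theoretical equilibrium sample by TIC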
rat α-thrombin = target: T1, rat α-thrombin (Rattus norvegicus, UniProt P18292); assay: Protease inhibition, Ki for rat α-thrombin (fluorogenic substrate Z-Gly-Gly-Arg-AMC); type: biochemical; conditions: for Rat alpha thrombin inhibition, slope normalized to DMSO: replicates R1-R3
T1 construct: rat α-thrombin (Molecular Innovations) were used at final concentrations of 2 nM and 3 nM; purchased Molecular Innovations
Procedure: as §1, §2, §3

[2] = peptide concentration 1.00E+02 uM
[3] = peptide concentration 1.19E-05 uM
[4] = peptide concentration 1.22E-02 uM
[5] = peptide concentration 1.25E+01 uM
[6] = peptide concentration 1.53E-03 uM
[7] = peptide concentration 1.56E+00 uM
[8] = peptide concentration 1.91E-04 uM
[9] = peptide concentration 1.95E-01 uM
[10] = peptide concentration 2.38E-05 uM
[11] = peptide concentration 2.44E-02 uM
[12] = peptide concentration 2.50E+01 uM
[13] = peptide concentration 3.05E-03 uM
[14] = peptide concentration 3.12E+00 uM
[15] = peptide concentration 3.81E-04 uM
[16] = peptide concentration 3.91E-01 uM
[17] = peptide concentration 4.77E-05 uM
[18] = peptide concentration 4.88E-02 uM
[19] = peptide concentration 5.00E+01 uM
[20] = peptide concentration 6.10E-03 uM
[21] = peptide concentration 6.25E+00 uM
[22] = peptide concentration 7.63E-04 uM
[23] = peptide concentration 7.81E-01 uM
[24] = peptide concentration 9.54E-05 uM
[25] = peptide concentration 9.77E-02 uM

For `O=C1C[C@H]2CCCN2C(=O)[C@H](Cc2ccccc2)NC(=O)[C@@H](NC(=O)c2ccc(Cl)s2)CCC=CCCN1` [compound 39], the Ki (human α-thrombin; average of R1-R3, read-out: Human alpha thrombin inhibition, Ki Average) was 4.24 µM, the “Human alpha thrombin inhibition, slope normalized to DMSO” value (human α-thrombin; [2]) was 7.2 and 18.3 and 14.2 and the “Human alpha thrombin inhibition, slope normalized to DMSO” value (human α-thrombin; [3]) was 106.2 and 105.2 and 96.5. For the same molecule, the “Human alpha thrombin inhibition, slope normalized to DMSO” value (human α-thrombin; [4]) was 97.4 and 143.9 and 87.6, the “Human alpha thrombin inhibition, slope normalized to DMSO” value (human α-thrombin; [5]) was 39.9 and 42.6 and 31.3 and the “Human alpha thrombin inhibition, slope normalized to DMSO” value (human α-thrombin; [6]) was 107.6 and 85.1 and 100.8. The “Human alpha thrombin inhibition, slope normalized to DMSO” value (human α-thrombin; [7]) was 63.5 and 67.4 and 86.8, the “Human alpha thrombin inhibition, slope normalized to DMSO” value (human α-thrombin; [8]) was 94.4 and 101.9 and 82.4 and the “Human alpha thrombin inhibition, slope normalized to DMSO” value (human α-thrombin; [9]) was 80.8 and 88.6 and 87.2. For the same molecule, the “Human alpha thrombin inhibition, slope normalized to DMSO” value (human α-thrombin; [10]) was 104.6 and 100.1 and 103.6, the “Human alpha thrombin inhibition, slope normalized to DMSO” value (human α-thrombin; [11]) was 87.3 and 61.5 and 110.7 and the “Human alpha thrombin inhibition, slope normalized to DMSO” value (human α-thrombin; [12]) was 18.7 and 30.4 and 26.6. For the same molecule, the “Human alpha thrombin inhibition, slope normalized to DMSO” value (human α-thrombin; [13]) was 107.4 and 96.1 and 108.0, the “Human alpha thrombin inhibition, slope normalized to DMSO” value (human α-thrombin; [14]) was 66.3 and 72.5 and 68.3 and the “Human alpha thrombin inhibition, slope normalized to DMSO” value (human α-thrombin; [15]) was 108.2 and 71.6 and 89.8. The “Human alpha thrombin inhibition, slope normalized to DMSO” value (human α-thrombin; [16]) was 98.6 and 87.2 and 97.0, the “Human alpha thrombin inhibition, slope normalized to DMSO” value (human α-thrombin; [17]) was 102.6 and 101.4 and 90.5 and the “Human alpha thrombin inhibition, slope normalized to DMSO” value (human α-thrombin; [18]) was 86.2 and 70.0 and 72.9. For the same molecule, the “Human alpha thrombin inhibition, slope normalized to DMSO” value (human α-thrombin; [19]) was 22.0 and 20.2 and 22.5, the “Human alpha thrombin inhibition, slope normalized to DMSO” value (human α-thrombin; [20]) was 107.1 and 94.4 and 65.9 and the “Human alpha thrombin inhibition, slope normalized to DMSO” value (human α-thrombin; [21]) was 53.3 and 30.4 and 58.6. For the same molecule, the “Human alpha thrombin inhibition, slope normalized to DMSO” value (human α-thrombin; [22]) was 101.4 and 104.3 and 107.6, the “Human alpha thrombin inhibition, slope normalized to DMSO” value (human α-thrombin; [23]) was 93.7 and 88.2 and 91.3 and the “Human alpha thrombin inhibition, slope normalized to DMSO” value (human α-thrombin; [24]) was 107.7 and 104.4 and 105.3. For the same molecule, the “Human alpha thrombin inhibition, slope normalized to DMSO” value (human α-thrombin; [25]) was 100.1 and 100.4 and 85.5, the IC50 (human α-thrombin; single replicates R1-R3, read-out: Human alpha thrombin inhibition, IC50) was 6.06 µM and 4.33 µM and 6.11 µM and the Ki (human α-thrombin; single replicates R1-R3, read-out: Human alpha thrombin inhibition, Ki) was 4.67 µM (2×) and 3.34 µM (2×) and 4.71 µM (2×). For the same molecule, the “PAMPA permeability: % permeability” value ([1]; 50 μM, 12–18 h, acceptor concentration relative to equilibrium) was 70 ± 4%, the “Permeability% (single replicates R1–R3)” value ([1]; 50 μM, 13 h (Fig. 5d)) was 73.98% and 66.95% and 68.74% and the “Permeability% Average” value ([1]; 50 μM, 13 h (Fig. 5d)) was 69.9%. The Papp at 50 μM ([1]; PAMPA, pH 7.4) was 11.5 ×10⁻⁶ cm/s, the Ki (rat α-thrombin; average of R1-R3, read-out: Rat alpha thrombin inhibition, Ki Average) was 1.19 µM and the “Rat alpha thrombin inhibition, slope normalized to DMSO” value (rat α-thrombin; [2]) was 8.6 and 7.4 and 11.4. For the same molecule, the “Rat alpha thrombin inhibition, slope normalized to DMSO” value (rat α-thrombin; [3]) was 107.5 and 103.5 and 101.6, the “Rat alpha thrombin inhibition, slope normalized to DMSO” value (rat α-thrombin; [4]) was 107.3 and 99.3 and 79.0 and the “Rat alpha thrombin inhibition, slope normalized to DMSO” value (rat α-thrombin; [5]) was 23.0 and 17.3 and 19.0. The “Rat alpha thrombin inhibition, slope normalized to DMSO” value (rat α-thrombin; [6]) was 108.1 and 101.8 and 103.2, the “Rat alpha thrombin inhibition, slope normalized to DMSO” value (rat α-thrombin; [7]) was 38.0 and 68.3 and 64.4 and the “Rat alpha thrombin inhibition, slope normalized to DMSO” value (rat α-thrombin; [8]) was 111.1 and 96.6 and 97.0. For the same molecule, the “Rat alpha thrombin inhibition, slope normalized to DMSO” value (rat α-thrombin; [9]) was 80.3 and 102.2 and 95.7, the “Rat alpha thrombin inhibition, slope normalized to DMSO” value (rat α-thrombin; [10]) was 106.4 and 99.5 and 91.3 and the “Rat alpha thrombin inhibition, slope normalized to DMSO” value (rat α-thrombin; [11]) was 104.4 and 97.3 and 93.2. The “Rat alpha thrombin inhibition, slope normalized to DMSO” value (rat α-thrombin; [12]) was 14.0 and 11.2 and 8.1, the “Rat alpha thrombin inhibition, slope normalized to DMSO” value (rat α-thrombin; [13]) was 71.4 and 100.8 and 98.3 and the “Rat alpha thrombin inhibition, slope normalized to DMSO” value (rat α-thrombin; [14]) was 53.4 and 47.3 and 48.9. The “Rat alpha thrombin inhibition, slope normalized to DMSO” value (rat α-thrombin; [15]) was 103.9 and 95.9 and 106.5, the “Rat alpha thrombin inhibition, slope normalized to DMSO” value (rat α-thrombin; [16]) was 72.4 and 80.6 and 86.0 and the “Rat alpha thrombin inhibition, slope normalized to DMSO” value (rat α-thrombin; [17]) was 110.4 and 101.0 and 101.1. For the same molecule, the “Rat alpha thrombin inhibition, slope normalized to DMSO” value (rat α-thrombin; [18]) was 95.5 and 75.4 and 93.2, the “Rat alpha thrombin inhibition, slope normalized to DMSO” value (rat α-thrombin; [19]) was 9.4 and 9.6 and 8.3 and the “Rat alpha thrombin inhibition, slope normalized to DMSO” value (rat α-thrombin; [20]) was 86.0 and 97.7 and 122.2. For the same molecule, the “Rat alpha thrombin inhibition, slope normalized to DMSO” value (rat α-thrombin; [21]) was 35.0 and 30.8 and 29.6, the “Rat alpha thrombin inhibition, slope normalized to DMSO” value (rat α-thrombin; [22]) was 106.2 and 91.0 and 101.5 and the “Rat alpha thrombin inhibition, slope normalized to DMSO” value (rat α-thrombin; [23]) was 51.1 and 75.3 and 70.4. The “Rat alpha thrombin inhibition, slope normalized to DMSO” value (rat α-thrombin; [24]) was 108.0 and 102.0 and 103.8, the “Rat alpha thrombin inhibition, slope normalized to DMSO” value (rat α-thrombin; [25]) was 101.3 and 96.8 and 84.0 and the IC50 (rat α-thrombin; single replicates R1-R3, read-out: Rat alpha thrombin inhibition, IC50) was 1.34 µM and 2.67 µM and 2.44 µM. For the same molecule, the Ki (rat α-thrombin; single replicates R1-R3, read-out: Rat alpha thrombin inhibition, Ki) was 741 nM (2×) and 1.48 µM (2×) and 1.35 µM (2×).
